Assay results as given in patent publication US6780995B2, “Activated iododerivatives for the treatment of cancer and aids” (Isotechnika Inc., priority 1997, dated 2004).
Where two headings read alike, the source gives them in different places.

Key:
COLO 205 cells = test: IC50 assay, inhibition of cell proliferation and growth, COLO 205; format: cell-based, human
Method: (§1) Cell culture: The human cell lines were propagated under sterile conditions in RPMI 1640 (CellGrow) with 10% fetal bovine serum (Hyclone), 2 mM L-glutamine, and sodium bicarbonate (complete medium) and incubated at 37° C. in HEPA-filtered Sterilcult CO2 tissue culture incubators (Forma) with 5% CO^2 and 95% humidity (Table 1). The murine leukemia cell lines were propagated in Dulbecco's MEM media with 10% equine serum (Hyclone), 2 mM L-glutamine, and sodium bicarbonate (complete medium) and incubated as described. The cells were subcultured twice weekly and used in experiments. The culture was screened for mycoplasma contamination using GeneProbe™ (Fisher) and positive cultures were cured of contaminants over three passages using constant treatment with BM-Cyclin™ antibiotic combination (Boehringer Mannheim). Only cultures confirmed as mycoplasma free were used in testing compounds for anticellular activity.
(§2) The test compounds were stored at 4° C. under light protected conditions. The test compounds were weighed and dissolved in DMSO. The dissolved compounds were then serially diluted in warm medium (RPMI 1640 or Dulbecco's MEM) under constant mixing to minimize precipitation. The positive control drug doxorubicin was diluted in water followed by dilution in media to achieve a final concentration of 200 nM.
(§3) For all experiments, the cells were harvested and centrifuged to remove the media, and suspended in fresh completed medium. Samples were taken to determine cell density. The cell count was determined with a Coulter Model Z1 cell counter and viability was measured with propidium iodide staining followed by analysis on a Coulter EPPICS Elite Flow cytometer. The cell samples sere adjusted with complete medium to a density of 5×10^4/mL for adherent cell lines and 1×10^5/mL for suspension lines. Tissue culture cluster plates (96 well, cat. No. 3595 Costar for adherent human lines and cat No. 25850 Corning for murine leukemias) were seeded with 100 μL cells and incubated as described. Replicate groups of plates were set up for each line to accommodate the exposure options for single agents and combinations. For each dilution 8 wells (100 μL samples of cells) were treated with 100 μL of dosing solution one day after plating. Each cluster plate contained a cell control (8 wells, mock-treated with complete medium), a medium control (3 wells with medium used to subtract out signal generated by media conditions), and an air blank (1 well, for calibrating the plate reader).
(§4) Anticellular effects of the compounds for the adherent cell lines were assessed with neutral red dye. On the day of analysis, the media was removed from sample cell monolayers and replaced with 0.1 mL of neutral red solution (0.5% neutral red, HBSS:RPMI 1640 (1:1), 0.05 M HEPES, pH 7.2). After incubation of the samples at 37° C. for 1 hour the excess dye was removed with blotting and the monolayers were washed twice with 0.85% NaCl solution (0.1 mL per wash). The cell associated dye was extracted by adding 0.2 mL of a 0.1 M NaH2PO4:ethanol (1:1) solution/well followed by incubation for 1 hour at 35° C. The absorbency of neutral red in each monolayer was measured at 550 nm (620 nm reference beam) on a Denley Anthos 2001 microplate reader. The data were transferred via the ARCOM software capture program in Lotus 1-2-3 for processing.
(§5) In assays where technical difficulties due to crystalization of the neutral red occurred the crystal violet staining procedure was employed to measure the amount of cells were left on the plate. Crystal violet staining solution [0.5% crystal violet (w/v), 50% methanol (v/v), 45% saline (v/v), and 5% formalin (v/v)] were prepared on the day of staining. After the media was removed from the sample wells, two drops of crystal violet stain were added to each well and the samples were incubated at ambient temperature for 10 minutes. […]

SK-OV-3 cells = test: IC50 assay, inhibition of cell proliferation and growth, SK-OV-3; format: cell-based, human
Method: as §1, §2, §3, §4, §5

A549 cells = test: IC50 assay, inhibition of cell proliferation and growth, A549; format: cell-based, human
Method: as §1, §2, §3, §4, §5

SK-MEL-5 cells = test: IC50 assay, inhibition of cell proliferation and growth, SK-MEL-5; format: cell-based, human
Method: as §1, §2, §3, §4, §5

B16 cells = test: IC50 assay, inhibition of cell proliferation and growth, B16; format: cell-based; conditions: B16 murine melanoma cell line, neutral red or crystal violet, read-out: IC50 Concentrations, B16
Method: as §1, §2, §3, §4, §5

M14 cells = test: IC50 assay, inhibition of cell proliferation and growth, M14; format: cell-based, human
Method: as §1, §2, §3, §4, §5

P388 cells = test: IC50 assay (XTT), inhibition of cell proliferation and growth, P388; format: cell-based; conditions: P388 murine leukemia cell line, XTT dye conversion, read-out: IC50 Concentrations, P388
Method: as §1, §2, §3
(§6) Anticellular effects of the murine leukemia cell lines were assessed with the XTT dye conversion assay which is more suited to suspension cultures. On the day of analysis XTT[2,3-bis(2-methoxy-4-nitro-5-sulfophenyl)-5-[(phenylamino)carbenyl]-2H-tetrazolium hydroxide, inner salt, sodium salt (Sigma)] was weighed out and dissolved at 1 mg/mL in media. PMS (phenazine methosulfate) was prepared at 5 mM in PBS (phosphate buffered saline) and stored as a stock solution 4° C. The PMS was mixed with dissolved XTT to a final concentration of 0.025 mM. Sample wells were treated with 50 μL of the XTT solution and the plates were incubated for four hours at 37° C. to allow for conversion into the liquid soluble formazan product. After the incubation period the reaction was stopped by adding 10 μL of 10% SDS solution per well and the wells contents of each plate were mixed by agitation. The absorbancy of formazan in each monolayer was measured at 450 nm (620 nm reference beam) on a Denley Anthos 2001 microplate reader. The data were transferred via the ARCOM software capture program into Lotus 1-2-3 for processing.
(§7) Using the procedures described above, concentrations of the Example compounds necessary to inhibit cell proliferation and growth by 50% (1C50 values) were determined in the test cell lines.

L1210 cells = test: IC50 assay (XTT), inhibition of cell proliferation and growth, L1210; format: cell-based; conditions: L1210 murine leukemia cell line; XTT dye conversion; read-out: IC50 Concentrations, L1210
Method: as §1, §2, §3, §6, §7

RPMI 8226 cells = test: IC50 assay, inhibition of cell proliferation and growth, RPMI 8226; format: cell-based; conditions: Homo sapiens, RPMI-8226, read-out: IC50 Concentrations, RPM 18226
Method: as §1, §2, §3, §7

MCF7 cells = test: IC50 assay, inhibition of cell proliferation and growth, MCF7; format: cell-based, human; conditions: Homo sapiens
Method: as §1, §2, §3, §4, §5

[1] = Homo sapiens, COLO 205 colon adenocarcinoma cell line, neutral red or crystal violet, read-out: IC50 Concentrations, COLO 205
[2] = Homo sapiens, SK-OV-3 ovarian adenocarcinoma cell line, neutral red or crystal violet, read-out: IC50 Concentrations, SK-OV-3
[3] = Homo sapiens, A549 bronchogenic cell line, neutral red or crystal violet, read-out: IC50 Concentrations, A 549
[4] = Homo sapiens, SK-MEL-5 melanoma cell line, neutral red or crystal violet, read-out: IC50 Concentrations, SK MEL-5
[5] = Homo sapiens, M14 melanoma cell line, neutral red or crystal violet, read-out: IC50 Concentrations, M14
[6] = Homo sapiens, COLO 205, read-out: IC50 Concentrations, COLO 205
[7] = Homo sapiens, SK-OV-3, read-out: IC50 Concentrations, SK-OV-3
[8] = Homo sapiens, A549, read-out: IC50 Concentrations, A 549
[9] = MCF7, read-out: IC50 Concentrations, MCF 7
[10] = Homo sapiens, SK-MEL-5, read-out: IC50 Concentrations, SK MEL-5
[11] = Homo sapiens, M14, read-out: IC50 Concentrations, M14
[12] = MCF7 breast adenocarcinoma cell line, neutral red or crystal violet, read-out: IC50 Concentrations, MCF 7

Row | Compound | IC50 (COLO 205 cells; [1]) [µM] | IC50 (SK-OV-3 cells; [2]) [µM] | melting point [°C] | IC50 (A549 cells; [3]) [µM] | IC50 (SK-MEL-5 cells; [4]) [µM] | IC50 (B16 cells; Mus musculus) [µM] | IC50 (M14 cells; [5]) [µM] | IC50 (COLO 205 cells; [6]) [µM] | IC50 (SK-OV-3 cells; [7]) [µM] | IC50 (A549 cells; [8]) [µM] | IC50 (MCF7 cells; [9]) [µM] | IC50 (SK-MEL-5 cells; [10]) [µM] | IC50 (M14 cells; [11]) [µM] | IC50 (MCF7 cells; [12]) [µM] | further results
1 | NC(=O)c1cc([N+](=O)[O-])ccc1I [Ref. No. 15, 2-Iodo-5-Nitro-Benzamide] | 33.2 | 141 | 260 to 264 | 37.4 | 314 | 134 | 36.1 |  |  |  |  |  |  |  | 
2 | N-(3′-Pyridyl)-2-Iodo-5-Nitrophenyl Hydrazide [Ref. No. 11] |  |  |  |  |  |  |  |  |  |  |  |  |  |  | IC50 (P388 cells): > 55.6 µM; IC50 (COLO 205 cells; COLO 205 colon adenocarcinoma cell line, neutral red or crystal violet, read-out: IC50 Concentrations, COLO 205): 111 µM; IC50 (SK-OV-3 cells; SK-OV-3 ovarian adenocarcinoma cell line, neutral red or crystal violet, read-out: IC50 Concentrations, SK-OV-3): 381 µM; IC50 (L1210 cells): ≥ 55.6 µM; IC50 (A549 cells; A549 bronchogenic cell line, neutral red or crystal violet, read-out: IC50 Concentrations, A 549): 387 µM; IC50 (SK-MEL-5 cells; SK-MEL-5 melanoma cell line, neutral red or crystal violet, read-out: IC50 Concentrations, SK MEL-5): 413 µM; IC50 (B16 cells): 129 µM; IC50 (M14 cells; M14 melanoma cell line, neutral red or crystal violet, read-out: IC50 Concentrations, M14): 467 µM
3 | Cc1csc(N(C(=O)c2cc([N+](=O)[O-])ccc2I)C(=O)c2cc([N+](=O)[O-])ccc2I)n1 [Ref. No. 20] |  |  |  |  |  |  |  | 42.6 | 10.8 | 48.4 | 36.1 | 47.1 | 15.1 |  | IC50 (RPMI 8226 cells): 13.7 µM
4 | O=C(Nc1ncc([N+](=O)[O-])s1)c1cc([N+](=O)[O-])ccc1I [Ref. No. 6, 2-(2′-Iodo-5′-Nitro-Benzamido)-5-Nitro-Thiazole] |  |  | 230 to 234 |  |  |  |  | 117 | 130 | 86.5 | 80.9 | 132 | 141 |  | 
5 | O=C(Nc1ccc2ccc(=O)oc2c1)c1cc([N+](=O)[O-])ccc1I [Ref. No. 4, 7-(2′-Iodo-5′-Nitro-Benzamido)-2H-1-Benzopyran-2-one] | > 500 | 395 | 273 to 277 | > 500 | > 500 | 15.9 | > 500 |  |  |  |  |  |  | > 500 | 
6 | CCN(CC)CCNC(=O)c1cc([N+](=O)[O-])ccc1I [Ref. No. 2, (N,N-Diethylaminoethyl)-2-Iodo-5-Nitro-Benzamide] |  |  | 124 to 126 |  |  |  |  | 343 |  | 333 | 128 |  |  |  | 
7 | O=C(Nc1nccs1)c1cc([N+](=O)[O-])ccc1I [Ref. No. 5, 2-(2′-Iodo-5′-Nitro-Benzamido)-Thiazole] | 13.4 | 32.8 | 210 to 213 | 48.6 | 46.2 | 30.8 | 17.4 |  |  |  |  |  |  | 27 | 
8 | O=C(Nc1ccc2c(C(F)(F)F)cc(=O)oc2c1)c1cc([N+](=O)[O-])ccc1I [Ref. No. 3, 7-(2′-Iodo-5′-Nitro-Benzamido)-4-Trifluoromethyl-2H-1-Benzopyran-2-one] |  |  | 223 to 227 |  |  |  |  | 39.9 | 44 | 363 | 114 | 37.7 | 126 |  | 
9 | C#CCNC(=O)c1cc([N+](=O)[O-])ccc1I [Ref. No. 8, N-(Propargyl) 2-Iodo-5-Nitro-Benzamide] | 30.6 | 43.4 | 204 to 206 | 46.6 | 90.4 | 50 | 49 |  |  |  |  |  |  | 47.7 | IC50 (P388 cells; Mus musculus): 25.8 µM
10 | CN(C)CCNC(=O)c1cc([N+](=O)[O-])ccc1I [Ref. No. 1, (N,N-Dimethylaminoethyl)-2-Iodo-5-Nitro-Benzamide] |  |  | 126 to 128 |  |  |  |  | 267 | 404 | 333 | 133 | 40.1 | 474 |  | 
11 | O=C(NCCCCCCNC(=O)c1cc([N+](=O)[O-])ccc1I)c1cc([N+](=O)[O-])ccc1I [Ref. No. 24, 1,6-Di-(2′-Iodo-5′-Nitro-Benzamido)-Hexane] |  |  |  |  |  |  |  | > 500 | > 500 | > 500 | > 500 | > 500 | > 500 |  | IC50 (RPMI 8226 cells): > 500 µM
12 | C=C(C)c1ccccc1NC(=O)c1cc([N+](=O)[O-])ccc1I [Ref. No. 9, N-(2′-Iodo-5′-Nitro-Benzoyl) 2-Isopropenyl Aniline] |  | > 500 | 155 to 158 | > 500 | > 500 | 462 | > 500 |  |  |  |  |  |  | 100 | 
13 | C=CCNC(=O)c1cc([N+](=O)[O-])ccc1I [Ref. No. 7, N-(Allyl)-2-Iodo-5-Nitro-Benzamide] | 38.5 | 46.4 | 155 to 158 | 134 | 124 | 45.1 | 41.8 |  |  |  |  |  |  |  | IC50 (P388 cells; Mus musculus): 39.4 µM
14 | NC(=O)c1cc(N)ccc1I [Ref. No. 13] | > 500 | > 500 |  | > 500 | > 500 | 500 | > 500 |  |  |  |  |  |  | > 500 | IC50 (P388 cells; Mus musculus): 439 µM
15 | O=C(c1cc([N+](=O)[O-])ccc1I)N(C(=O)c1cc([N+](=O)[O-])ccc1I)C1=NCCS1 [Ref. No. 17] |  |  |  |  |  |  |  | > 500 | 32 | 127 | 46.9 | 42.8 | 37.9 |  | IC50 (RPMI 8226 cells): > 50 µM
